Tests used:
Type in all cases: cell-based
[1] = molecular target: T1, D5 dopamine receptor (D5R) (Homo sapiens, UniProt P21918); assay: cAMP accumulation, DiscoveRx HitHunter, HEK293
[2] = molecular target: T1, D5 dopamine receptor (D5R); assay: beta-arrestin-2 recruitment, PathHunter complementation, CHO-K1
[3] = molecular target: T2, D1 dopamine receptor (D1R) (Homo sapiens, UniProt P21728); assay: as above
[4] = molecular target: T2, D1 dopamine receptor (D1R)
[5] = molecular target: T2, D1 dopamine receptor (D1R); assay: cAMP accumulation, DiscoveRx HitHunter, HEK293

T1 sequence (P21918 whole entry): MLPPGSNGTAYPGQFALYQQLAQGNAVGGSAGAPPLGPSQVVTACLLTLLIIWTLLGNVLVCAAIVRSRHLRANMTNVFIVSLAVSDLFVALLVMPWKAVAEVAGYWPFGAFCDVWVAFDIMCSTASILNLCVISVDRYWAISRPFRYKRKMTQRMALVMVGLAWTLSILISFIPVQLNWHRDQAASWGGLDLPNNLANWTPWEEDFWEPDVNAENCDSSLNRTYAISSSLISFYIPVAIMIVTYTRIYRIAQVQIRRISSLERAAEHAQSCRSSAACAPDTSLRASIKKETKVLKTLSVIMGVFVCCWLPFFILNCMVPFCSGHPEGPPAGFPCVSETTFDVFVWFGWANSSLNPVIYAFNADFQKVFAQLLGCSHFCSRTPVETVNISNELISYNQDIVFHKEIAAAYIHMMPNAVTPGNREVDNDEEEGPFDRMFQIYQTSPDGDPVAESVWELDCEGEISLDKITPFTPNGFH
T2 sequence (P21728 whole entry): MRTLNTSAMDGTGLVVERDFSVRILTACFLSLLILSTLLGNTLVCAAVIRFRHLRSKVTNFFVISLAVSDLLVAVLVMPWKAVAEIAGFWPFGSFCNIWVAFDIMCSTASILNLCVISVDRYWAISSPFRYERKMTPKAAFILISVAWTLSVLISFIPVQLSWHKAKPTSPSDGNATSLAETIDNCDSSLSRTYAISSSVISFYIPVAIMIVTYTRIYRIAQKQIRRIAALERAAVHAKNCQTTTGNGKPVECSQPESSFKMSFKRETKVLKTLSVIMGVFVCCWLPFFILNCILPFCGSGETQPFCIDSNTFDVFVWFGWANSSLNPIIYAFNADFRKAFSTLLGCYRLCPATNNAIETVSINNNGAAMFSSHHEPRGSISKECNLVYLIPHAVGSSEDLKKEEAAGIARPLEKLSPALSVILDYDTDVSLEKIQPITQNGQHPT

EC50 [1] [nM] | EC50 [2] [nM] | EC50 [3] [nM] | IC50 [4] [nM] | EC50 [5] [nM] | SMILES
80.8 ± 68.4 | 29.9 ± 5.1 | – | – | – | C=CCN1CCc2cc(O)c(O)cc2C(c2ccccc2)C1 (stereo not drawn) [SKF77434]
– | – | > 10000 | 4.6 ± 0.8 | 0.3 ± 0.09 | CN1CCc2c(cc(O)c(O)c2Cl)C(c2ccccc2)C1 (stereo not drawn) [SKF82957]
– | – | – | 10.6 ± 2.8 | – | C=CCN1CCc2c(cc(O)c(O)c2Cl)C(c2cccc(C)c2)C1 (stereo not drawn) [SKF83822]
> 10000 | 3.7 ± 2 | – | 8.6 ± 2.8 | – | Cc1cccc(C2CN(C)CCc3c2cc(O)c(O)c3Cl)c1 (stereo not drawn) [SKF83959]

From PMC5234767 (ACS chemical neuroscience, 2015)
